This is an account of results in US11352350B2, “IRAK degraders and uses thereof” (Kymera Therapeutics, Inc., priority 2018, dated 2022).

One data set deals with OCI-LY10. Description: CTG Cell Viability Assay - OCI-LY10. Type of data set: cell-based, human. In outline: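 OCI-LY10 cells exposed to 9-dose, 1:3 dilutions from 10 μM top (0.2% DMSO) for 4 days at 37° C, 5% CO2. Viability by CellTiter-Glo luminescence; IC50 from three-parameter logistic fit.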
For the next data set, the system named is TMD8 tumor cells. Description: TMD8 large B lymphoma xenograft model in C.B. 17 SCID mice. Type of data set: in vivo, mouse. The conditions noted are these: FIG. 6 A-C. As for the experimental part:
Cell Culture: The OCI-LY10 or TMD8 tumor cells were maintained as suspension in RPMI1640 medium supplemented with 10% fetal bovine serum, 100 U/mL penicillin and 100 μg/mL streptomycin at 37° C. in an atmosphere of 5% CO2 in air. The tumor cells were routinely subcultured twice weekly by trypsin-EDTA treatment. The cells growing in an exponential growth phase were harvested and counted for tumor inoculation.
Animals: C.B. 17 SCID, female, 6-8 weeks, weighing approximately 16-18 g were used. Animals were housed and maintained according to IACUC protocols. […]
Assignment to Groups: Before commencement of treatment, all animals were weighed and the tumor volumes were measured. […]
Observation: After tumor inoculation, the animals were checked daily for morbidity and mortality. […] Mortality and observed clinical signs were recorded for individual animals in detail.
Data Collection: Tumor volumes were measured in two dimensions using a caliper, and the volumes were expressed in mm^3 using the formula: “V=(L×W×W)/2, where V is tumor volume, L is tumor length (the longest tumor dimension) and W is tumor width (the longest tumor dimension perpendicular to L).
At termination: At pre-determined time points based on study design, animals were humanely sacrificed by CO2. […] Compound was determined in tumor and plasma using LC/MS with calibrated standards.

The target in data set [1] is IRAK4 (Mus musculus (Mouse), UniProt Q8R4K2). Description: In vivo IRAK4 degradation in BALB/c mouse spleen (air pouch study). The conditions noted are these: three PO doses; FIG. 8. How it is done: Dosing of Degrader: Mice were dosed orally at 10 mL/kg with suspensions above, giving 10 mg/kg, 30 mg/kg and 100 mg/kg final dose levels, three times at 8-hour intervals.
Termination, Cell Collection and Data: Four hours after MSU/saline injection, the mice were anesthetized and humanely exsanguinated. The spleens were removed, halved, flash frozen in labeled Eppendorf tubes in liquid nitrogen, and stored at −80° C. for determination of IRAK4 using targeted MS/MS with labeled peptide internal standard. Immediately after the bleed, 3 ml 10 U/mL heparinized saline was injected into the air pouch. The air pouch was gently massaged, the contents immediately removed, and the exudate volume recorded. After allowing the MSU crystals to settle out for fifteen minutes in an ice bath, an aliquot of the exudate was transferred to labeled Eppendorf tubes for differential white blood cell counts, including neutrophils.

Data set [2] deals with T1, IRAK4 (Homo sapiens (Human), UniProt Q9NWZ3). Description: IRAK4 degradation in OCI-LY10 (DC50). The class given is cell-based.
The target in data set [3] is T1, IRAK4. Description: IRAK4 WB degradation (DC50). The class given is cell-based.
The target in another data set is IKAROS (Homo sapiens (Human), UniProt Q13422+Q96SW2). Description: IKAROS degradation in OCI-LY10 (DC50). Type of data set: cell-based.
Another data set deals with AIOLOS (Homo sapiens (Human), UniProt Q96SW2+Q9UKT9). Description: AIOLOS degradation in OCI-LY10 (DC50). Type of data set: cell-based.
The next data set deals with OCI-LY3. Description: OCI-LY3 viability, CTG. Type of data set: cell-based. The conditions noted are these: Homo sapiens, MYD88 MUT.
A further data set has as its system SU-DHL6. Description: SU-DHL6 viability, CTG. The class given is cell-based. The conditions noted are these: Homo sapiens, SU-DHL-6.
In a further data set the test system is OCI-LY19. Description: OCI-LY19 viability, CTG. Type of data set: cell-based. The conditions noted are these: Homo sapiens, OCI-LY19.
Data set [4] can be described thus: Oral exposure / bioavailability of I-75. The class given is in vivo, rat, dog, and monkey. The conditions noted are these: FIG. 11.

SMILES strings stand for the structures. Like-named read-outs stand apart in the source and are kept apart here.

T1 sequence (Q9NWZ3 whole entry): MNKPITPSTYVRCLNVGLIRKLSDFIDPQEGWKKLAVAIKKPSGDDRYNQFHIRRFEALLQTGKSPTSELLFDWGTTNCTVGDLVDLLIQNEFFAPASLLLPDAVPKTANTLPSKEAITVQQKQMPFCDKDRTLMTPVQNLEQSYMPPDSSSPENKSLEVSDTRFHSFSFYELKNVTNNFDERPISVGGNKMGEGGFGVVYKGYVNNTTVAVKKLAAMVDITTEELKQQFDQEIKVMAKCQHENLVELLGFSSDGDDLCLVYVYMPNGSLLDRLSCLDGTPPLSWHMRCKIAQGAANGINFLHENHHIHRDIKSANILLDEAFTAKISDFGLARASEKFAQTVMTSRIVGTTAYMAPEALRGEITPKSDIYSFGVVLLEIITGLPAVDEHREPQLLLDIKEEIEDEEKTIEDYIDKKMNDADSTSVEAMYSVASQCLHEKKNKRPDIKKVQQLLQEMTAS
Chain of AIOLOS (Q9UKT9 whole entry): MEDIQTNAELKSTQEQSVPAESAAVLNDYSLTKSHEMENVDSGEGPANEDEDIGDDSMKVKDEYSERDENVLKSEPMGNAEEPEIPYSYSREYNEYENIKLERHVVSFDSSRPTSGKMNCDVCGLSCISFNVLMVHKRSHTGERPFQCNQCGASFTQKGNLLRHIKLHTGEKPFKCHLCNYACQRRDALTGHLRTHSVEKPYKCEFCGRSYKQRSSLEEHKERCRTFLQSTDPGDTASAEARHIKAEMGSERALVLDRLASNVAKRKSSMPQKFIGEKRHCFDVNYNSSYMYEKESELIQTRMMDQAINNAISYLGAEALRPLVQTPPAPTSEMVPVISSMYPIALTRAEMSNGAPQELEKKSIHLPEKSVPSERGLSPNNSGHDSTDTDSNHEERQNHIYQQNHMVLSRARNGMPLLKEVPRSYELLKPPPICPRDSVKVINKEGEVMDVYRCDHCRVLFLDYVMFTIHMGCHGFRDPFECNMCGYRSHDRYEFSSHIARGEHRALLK
Chain of AIOLOS (Q96SW2 whole entry): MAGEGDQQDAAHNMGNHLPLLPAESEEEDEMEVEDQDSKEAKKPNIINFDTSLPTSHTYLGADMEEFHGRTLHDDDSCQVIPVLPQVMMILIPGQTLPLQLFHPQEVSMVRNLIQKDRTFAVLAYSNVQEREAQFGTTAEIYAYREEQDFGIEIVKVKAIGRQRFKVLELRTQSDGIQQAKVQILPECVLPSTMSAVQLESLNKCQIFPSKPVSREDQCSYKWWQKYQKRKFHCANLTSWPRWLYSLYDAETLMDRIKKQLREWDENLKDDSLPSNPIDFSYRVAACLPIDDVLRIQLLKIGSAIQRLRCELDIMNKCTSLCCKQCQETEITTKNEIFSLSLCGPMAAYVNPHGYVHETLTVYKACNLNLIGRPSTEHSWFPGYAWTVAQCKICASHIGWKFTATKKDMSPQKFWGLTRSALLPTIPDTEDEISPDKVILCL
Chain of AIOLOS (Q16531 whole entry partner): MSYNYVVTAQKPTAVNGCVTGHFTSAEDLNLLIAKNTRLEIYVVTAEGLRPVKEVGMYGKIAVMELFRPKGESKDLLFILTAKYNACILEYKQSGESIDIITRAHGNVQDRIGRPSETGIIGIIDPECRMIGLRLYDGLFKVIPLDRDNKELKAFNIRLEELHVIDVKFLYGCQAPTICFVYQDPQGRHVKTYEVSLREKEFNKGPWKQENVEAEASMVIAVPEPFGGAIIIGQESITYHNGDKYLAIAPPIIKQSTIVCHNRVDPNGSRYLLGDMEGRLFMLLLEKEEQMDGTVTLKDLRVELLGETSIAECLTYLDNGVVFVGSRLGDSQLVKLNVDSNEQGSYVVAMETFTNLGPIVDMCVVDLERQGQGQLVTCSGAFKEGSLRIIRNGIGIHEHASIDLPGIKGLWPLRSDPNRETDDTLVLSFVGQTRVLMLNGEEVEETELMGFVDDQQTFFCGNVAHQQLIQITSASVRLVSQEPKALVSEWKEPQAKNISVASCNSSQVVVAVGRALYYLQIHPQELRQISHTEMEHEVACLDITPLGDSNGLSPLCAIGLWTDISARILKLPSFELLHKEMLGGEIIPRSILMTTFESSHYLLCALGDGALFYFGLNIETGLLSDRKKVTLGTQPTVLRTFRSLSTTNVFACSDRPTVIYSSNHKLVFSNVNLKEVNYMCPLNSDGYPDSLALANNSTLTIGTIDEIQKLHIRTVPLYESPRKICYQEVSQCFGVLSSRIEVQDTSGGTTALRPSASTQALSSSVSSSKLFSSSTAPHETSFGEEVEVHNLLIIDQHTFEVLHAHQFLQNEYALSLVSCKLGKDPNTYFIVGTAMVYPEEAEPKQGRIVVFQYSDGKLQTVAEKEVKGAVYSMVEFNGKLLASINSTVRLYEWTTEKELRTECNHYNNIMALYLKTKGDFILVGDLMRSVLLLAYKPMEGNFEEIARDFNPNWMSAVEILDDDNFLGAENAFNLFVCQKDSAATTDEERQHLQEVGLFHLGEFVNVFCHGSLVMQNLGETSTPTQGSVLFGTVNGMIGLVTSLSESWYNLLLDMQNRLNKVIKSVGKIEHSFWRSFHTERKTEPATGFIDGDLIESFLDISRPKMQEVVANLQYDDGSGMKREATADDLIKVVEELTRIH
Chain of IRAK4 (Mus musculus (Mouse), UniProt Q8R4K2) (Q8R4K2 whole entry): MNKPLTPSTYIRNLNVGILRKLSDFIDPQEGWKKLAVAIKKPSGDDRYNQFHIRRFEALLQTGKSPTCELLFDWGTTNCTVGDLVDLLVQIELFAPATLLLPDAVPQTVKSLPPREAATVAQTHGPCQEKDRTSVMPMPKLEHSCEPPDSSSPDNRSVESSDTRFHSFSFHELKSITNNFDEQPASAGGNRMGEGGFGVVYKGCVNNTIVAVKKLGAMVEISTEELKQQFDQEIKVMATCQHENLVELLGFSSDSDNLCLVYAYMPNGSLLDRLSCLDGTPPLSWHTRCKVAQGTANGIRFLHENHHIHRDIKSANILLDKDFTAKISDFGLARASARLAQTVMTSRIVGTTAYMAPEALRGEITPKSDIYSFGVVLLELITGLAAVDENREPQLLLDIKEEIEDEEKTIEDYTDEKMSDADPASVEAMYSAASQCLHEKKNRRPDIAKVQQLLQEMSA
Chain of IKAROS (Q13422 whole entry): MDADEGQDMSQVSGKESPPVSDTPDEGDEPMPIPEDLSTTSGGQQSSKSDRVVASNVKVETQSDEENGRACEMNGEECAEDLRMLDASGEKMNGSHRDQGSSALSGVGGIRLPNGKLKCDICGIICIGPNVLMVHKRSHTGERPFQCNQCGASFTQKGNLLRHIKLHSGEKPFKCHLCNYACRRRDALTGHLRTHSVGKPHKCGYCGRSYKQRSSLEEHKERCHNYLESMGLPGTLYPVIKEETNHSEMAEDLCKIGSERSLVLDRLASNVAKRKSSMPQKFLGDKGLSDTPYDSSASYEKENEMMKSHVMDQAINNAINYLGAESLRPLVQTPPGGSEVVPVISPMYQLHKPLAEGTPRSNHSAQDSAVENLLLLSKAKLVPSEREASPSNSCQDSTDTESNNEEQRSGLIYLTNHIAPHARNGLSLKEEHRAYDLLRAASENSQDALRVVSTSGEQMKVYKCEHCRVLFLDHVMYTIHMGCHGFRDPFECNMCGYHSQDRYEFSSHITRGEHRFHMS
Chain of IKAROS (Q96SW2 whole entry): as the sequence (Q96SW2 whole entry) above
Chain of IKAROS (Q16531 whole entry partner): as the sequence (Q16531 whole entry partner) above

On to `CN(CCCOCCCc1cccc2c1n(C)c(=O)n2C1CCC(=O)NC1=O)C[C@H]1CC[C@H](n2cc(NC(=O)c3coc(-c4ccnc(NCC5CC5)c4)n3)c(C(F)F)n2)CC1` (mixture of isomers) [I-30, 2-[2-(Cyclopropylmethylamino)-4-pyridyl]-N-[3-(difluoromethyl)-1-[4-[[3-[3-[1-(2,6-dioxo-3-piperidyl)-3-methyl-2-oxo-benzimidazol-4-yl]propoxy]propyl-methyl-amino]methyl]cyclohexyl]pyrazol-4-yl] oxazole-4-carboxamide], for which the “cytotoxicity in OCI-LY10 lymphoma line” value in the data set on OCI-LY10 (FIG. 5) is listed as “cytotoxic”. Moreover, the IC50 – broadly, the midpoint of a concentration-inhibition curve – with OCI-LY10 (Homo sapiens, OCI-Ly10, 96 h, OCI-LY10, 4 days, read-out: CTG Cell Viability Assay - OCI-LY10: Average external-IC50) lay in the range of 100 to 500 nM. In addition, in the data set on TMD8 tumor cells, the “activity in TMD8 xenograft model” value is “active”. The “IRAK4 in BALB/c mouse spleen” value on IRAK4 [1] was “in vivo degradation of IRAK4”.

Regarding `CN(C[C@H]1CC[C@H](n2cc(NC(=O)c3coc(-c4ccnc(NCC5CC5)c4)n3)c(C(F)F)n2)CC1)C1CCN(Cc2cccc3c2n(C)c(=O)n3C2CCC(=O)NC2=O)CC1` (stereo partly shown) [I-75, 2-(2-((cyclopropylmethyl)amino)pyridin-4-yl)-N-(3-(difluoromethyl)-1-((1r,4r)-4-(((1-((1-(2,6-dioxopiperidin-3-yl)-3-methyl-2-oxo-2,3-dihydro-1H-benzo[d]imidazol-4-yl)methyl)piperidin-4-yl)(methyl)amino)methyl)cyclohexyl)-1H-pyrazol-4-yl)oxazole-4-carboxamide], the DC50 – broadly, the concentration at which degradation of the target reaches its halfway point – at IRAK4 [2] (read-out: IRAK4 Degradation in OCI-LY10, DC50) was 8 nM; at IRAK4 [2] (read-out: IRAK4 OCI-LY10 DC50) it was 8 nM; at IRAK4 [3] it was 23 nM; on IKAROS, more than 100 nM; at AIOLOS, more than 100 nM. The IC50 with OCI-LY3 worked out at 180 nM; in the data set with SU-DHL6 (MYD88 WT Lines, read-out: SU-DHL6 Viability, CTG IC50) it was 1600 nM; with SU-DHL6 (MYD88 WT, read-out: SU-DHL6 CTG IC50), 1600 nM; in the data set with OCI-LY19 (MYD88 WT Lines, read-out: OCI-LY19 Viability, CTG IC50) it was 480 nM; in the data set on OCI-LY19 (MYD88 WT, read-out: OCI-LY19 CTG IC50), 480 nM. In data set [4] (rat, dog, and monkey), the oral bioavailability result is “oral bioavailable”. The “oral exposure in plasma” value in data set [4] (up to 300 mg/kg) is reported as “dose proportional oral exposure in plasma”.
